Patent publication US9630964B2, “Fluoro-9-methyl-β-carbolines” (priority 2013, dated 2017)
Values after ≈ are worked out from the molar mass of the structure shown.

Experiments:
[1] = test system: human neuroblastoma cells (SH-SY5Y); test: Differentiation of human neuroblastoma cells (SH-SY5Y), morphological examination; format: cell-based; details: SH-SY5Y
Method: The SH-SY5Y cell line was obtained from the German collection of microorganisms and cell cultures—DSMZ, Braunschweig. The cells were cultivated in MEM (Minimum essential medium, Life Technologies) with 10% FCS (fetal calf serum, Biochrom AG) and penicillin/streptomycin (Biochrom AG). For morphological examinations the cells were seeded in a density of 1.5×10^4 cells/cm^2 in 24-well plates (Falcon, cell culture treated) with 1 mL medium. A stock solution of 10 mmol/L of the compound according to the invention 6-fluoro-9-methyl-β-carboline was prepared in 50% ethanol and sterile filtered. Five hours after seeding of the cells the compound according to the invention 6-fluoro-9-methyl-β-carboline was added in the corresponding amount to the medium achieving the desired final concentration. The medium was changed once a week. The cells were regularly microscopically examined. Microscopic images were taken at BZ Keyence 10 with a 10×lens and 4×digital zoom. An automatic contrast enhancement was made with the program BZ Analyzer.

NT3 (Neurotrophin 3) = test: Quantitative RT-PCR, relative gene expression of NT3 in SH-SY5Y cells; format: cell-based, human; details: 30 μM each, 14-day exposition
Method: (§1) SH-SY5Y cell lines, which were provided by the institute of human genetics of university hospital Eppendorf and which they in turn received from Braunschweig resource center, were used again for the RT-PCR experiments (reverse transcriptase polymerase chain reaction) carried out for this purpose.
The cells were incubated in MEM (Minimum essential medium, Life Technologies) with 10% FCS (fetal calf serum, Biochrom AG) and penicillin/streptomycin (Biochrom AG). The cells were seeded with a density of 1×10^5 cells/cm^2 in 25 cm^2 cell culture bottles (Falcon, cell culture treated) with 5 mL medium. […]
The RNA-isolation was done with the HighPure RNA Isolation kit of the company Roche. […] The concentration of RNA was measured with nanoDrop spectrometer and the RNA integrity was determined with the aid of the Bioanalyzer 2100 (Agilent). […]
After the reaction, this run was diluted 1:4 and thereof 2 μL per each quantitative RT-PCR were used. This was performed in a LightCycler 480 under standard conditions in the SybrGreen format with annealing temperatures determined for each primer individually. […]
The specificity was verified by melting curve analysis and subsequent gel electrophoresis. For each PCR the PCR efficiency and the Cq value was determined by the program LinRegPCR and these were used in further calculations. […]

[2] = test system: DRD2S (short variant of dopamine receptor subtype 2); test: Quantitative RT-PCR, relative gene expression of DRD2S in SH-SY5Y cells; format: cell-based, human; details: 30 μM each
Method: as §1
The cells were incubated in MEM (Minimum essential medium, Life Technologies) with 10% FCS (fetal calf serum, Biochrom AG) and penicillin/streptomycin (Biochrom AG). The cells were seeded with a density of 1×10^5 cells/cm^2 in 25 cm^2 cell culture bottles (Falcon, cell culture treated) with 5 mL medium. Stock solutions of 10 mmol/L of compounds 9-methyl-β-carboline (AC-002 or 9MβC) and 6-fluoro-9-methyl-β-carboline (AC-102 or 6F9MβC), respectively were prepared in distillated water and sterile filtered. One day after the cell seeding the compounds were added in corresponding amounts (5-55 μL) to reach final concentration in the medium of 10 μM, 20 μM and 30 μM for 6F9MβC and 30 μM, 50 μM and 70 μM for 9MβC. The references received only the corresponding amount of solvent (distilled water). The medium was changed once a week.
The cells were regularly microscopically examined and harvest after 2, 7 and 14 days of incubation time, washed with PBS and immediately frozen at −80° C.
The RNA-isolation was done with the HighPure RNA Isolation kit of the company Roche. This isolation includes a DNaseI digestion. The concentration of RNA was measured with nanoDrop spectrometer and the RNA integrity was determined with the aid of the Bioanalyzer 2100 (Agilent). By using random hexamer primers, protector RNA inhibitor (Roche) and transcriptor reverse transcriptase (fermentas), 300 ng RNA were transcribed into cDNA per each sample.
After the reaction, this run was diluted 1:4 and thereof 2 μL per each quantitative RT-PCR were used. This was performed in a LightCycler 480 under standard conditions in the SybrGreen format with annealing temperatures determined for each primer individually. If possible, exon spanning primers were used.
The specificity was verified by melting curve analysis and subsequent gel electrophoresis. For each PCR the PCR efficiency and the Cq value was determined by the program LinRegPCR and these were used in further calculations. B2M (β2-microglobulin) was identified from multiple reference genes to be suitable for examination conditions. All results are results relative to the corresponding reference conditions, at which only solvent was administered for the specified period of time (i.e. 2 days, 7 days or 14 days). In FIGS. 5A to 5I are also relative gene expressions (relative to reference conditions) presented. Here, the 2-day exposition is presented in light grey, the 7-day exposition in dark grey and the 14-day exposition in black. Every measured value from FIGS. 5A-5I represents a mean value of 3 independent biologic samples.
Analogous to example 4 RT-PCR experiments with the inventive active agent 7-fluoro-9-methyl-β-carboline (7F9MβC) were also performed for some important cellular factors. The experimental procedure was here identical to the experiments with 6-fluoro-9-methyl-β-carboline and 9-methyl-β-carboline. Here the same (like for 6F9MβC) final concentrations of 30 μM, 50 μM and 70 μM 7F9MβC for the culture medium were employed. The examined factors were BDNF (brain-derived neurotrophic factor), Lif (Leukemia inhibitory factor), DRD2S (short variant of dopamine receptor subtype 2) as well as DKK1 (Dickkopf-related protein 1). The same primers, that were already listed for the respective target genes in example 4 (Tab. 1) were used. As already noted, especially BDNF and Lif belongs to the most important factors for cellurar repair processes after traumas in the inner ear.

hearing threshold = test: Acoustically evoked potentials: hearing threshold after acoustic trauma; format: in vivo; details: guinea pig, total 0.18 mg per ear
Method: To trigger an acoustic trauma, guinea pigs were anesthetized with 60 mg/kg ketamine and 8 mg/kg xylazine. Then Bepanten ointment (Bayer) was administered to the eyes and the animal was put in a soundproof chamber. A calibrated speaker was placed directly above the head of the animal, wherein it was set to emit a half octave band, centered around 8 kHz, with a volume of 110 dB for duration of 30 minutes.
As measure for evaluation of the hearing threshold of the guinea pig acoustically evoked potentials were measured. Therefore, the electrophysiological activity of the nerve cells in the brain stem that forward impulses from the inner ear was derived after sonication of the ear with 8, 11.3, 16, 22.6 and 32 kHz. The sonification was carried out ascendingly from 0 dB to 90 dB in single steps of 5 dB.
The measurement was carried out 3 days before the acoustic trauma (D-3), 30 minutes after the acoustic trauma (D0) as well as 14 days after the acoustic trauma (D14).
Per animal one ear was not treated and used as intra-individual control (hierin partly abbreviated to “contr.”) and the second ear was treated with 6-fluoro-9-methyl-β-carboline. Therefore, one hour after the acoustic trauma a dose of 0.12 mg 6-fluoro-9-methyl-β-carboline (in a hydrogel as vehicle) was administered intratympanically. 3 days after the acoustic trauma a further intratympanic administration of 0.06 mg 6-fluoro-9-methyl-β-carboline was carried out. The measurements were conducted on four guinea pigs (n=4).
Afterwards, the remaining shift of hearing threshold (also named as permanent shift of hearing threshold) was determined from the measured values before the acoustic trauma (D-3) and after 14 days (D14). From the measured values directly after the acoustic trauma (D0) and after 14 days (D14) the recovery from the trauma (D0-D14) was also determined.
Analogous to the above performed experiments with 6-fluoro-9-methyl-β-carboline, also corresponding experiments with 9-methyl-β-carboline were performed. The experimental procedure was nearly identical, wherein of course 9-methyl-β-carboline instead of 6-fluoro-9-methyl-β-carboline was used. The total dose of 9-methyl-β-carboline was here 0.2 mg and 0.35 mg per ear, respectively.

physchem = details: water
Method: Furthermore, the solubility of both compounds in water was determined by preparing concentration series of both compounds in water at room temperature. The concentration at which the compound was barely soluble was determined by external calibration. The corresponding concentration was quantified by HPLC.

What does the source list for Cn1c2ccc(F)cc2c2ccncc21 [6F9MβC, 6-fluoro-9-methyl-β-carboline]?
concentration at which a comparable differentiation of the tested cells is observed ([1]; 15 days incubation): 30 µM; effect on proliferation and morphology of cells ([1]; 15 days, increasing concentrations, pronounced at 30 μM vs 0 μM): inhibits proliferation of cells and induces sprouting of slim extensions as well as a change in size and shape of the cells; NT3 expression relative to expression induced by 9MβC (NT3 (Neurotrophin 3)): approximately 3.5 times; DRD2S expression relative to expression induced by 9MβC ([2]; 2-day exposition): higher; DRD2S expression relative to expression induced by 9MβC ([2]; 7-day exposition): lower; DRD2S expression relative to expression induced by 9MβC ([2]; 14-day exposition): higher; improved recovery of hearing threshold (D0-D14) vs untreated ear (hearing threshold; 8 kHz): approximately 5 dB; improved recovery of hearing threshold (D0-D14) vs untreated ear (hearing threshold; 11.3 kHz): ~25 dB; reduction of the hearing threshold (permanent shift D14-D-3) vs untreated control (hearing threshold; 11.3 kHz): approximately 20 dB; improved recovery of hearing threshold (D0-D14) vs untreated ear (hearing threshold; 16 kHz): ~20 dB; reduction of the hearing threshold (permanent shift D14-D-3) vs untreated control (hearing threshold; 16 kHz): ~30 dB; solubility (physchem): 29.7 µg/mL (≈ 148 µM)
